Literature values in PMC8086892 (Peptide science (Hoboken, N.J.), 2020).

Assays:
[1] = ref Orivel et al. [27]
[2] = ref Orivel et al. [27]; remark: listed apart in the source

Ponericin L2
Antimicrobial activity [1]: broad spectrum antimicrobial activity | Hemolytic activity [2]: no detectable hemolytic activity
